According to patent US20230218761A1, “METHOD FOR DECOMPOSING COMPOUND AND COMPOUND” (NATIONAL UNIVERSITY CORPORATION HOKKAIDO UNIVERSITY, priority 2020, published 2023):

How the values were obtained:
Format in all cases: physicochemical
[1] = Decomposition of compound by X-ray irradiation, residual ratio by HPLC (Examples 5 to 8); conditions: 0.5 μM compound in 0.1-M phosphoric acid buffer pH 7.0, bubbled with Ar, X-rays 6 MeV, 20 Gy, 4.4 Gy/min
Experimental: HPLC System: HPLC system (produced by Shimadzu Corporation) equipped with a reverse-phase column Inertsil ODS-3 (10 mm×250 mm) (produced by GL Sciences).
Eluent A: 0.1-M triethylamine acetic acid buffer solution
This buffer solution was used as an X-ray irradiation solution for the compound.
The X-ray irradiation solution for the compound was bubbled with Ar and then irradiated with X-rays at 6 MeV (20 Gy, 4.4 Gy/min) using LINAC (linear accelerator).
The peak area ratio was calculated on the basis of the areas of absorption peaks of the compound and methylene blue. The ratio between the concentrations of methylene blue and the compound was determined using the calibration curve. The concentration of the compound was calculated using the known concentration of the methylene blue. Thus, the residual ratio (Post/Pre (%)) of the compound was determined.
Note that, the smaller the residual ratio (Post/Pre (%)), the higher the degree of progress of the decomposition (selectively decomposition of chemical bonds; dissociation of axial ligands) by X-rays.

[2] = Impact of pH on decomposition of the compound by X-ray irradiation (residual ratio by HPLC); conditions: X-rays 6 MeV, 20 Gy absorbed, average of three
Experimental: In a phosphoric acid buffer solution having a pH of 6 or 7, 5 μM of the compound 2 was dissolved. While degassing was performed using Ar, the resulting mixture was irradiated with X-rays (6 MeV) using LINAC such that the amount of X-rays absorbed was 20 Gy. The sample irradiated with X-rays was analyzed using HPLC as in Example 5 to calculate the residual ratios of the compound 2 at the above pH values. The above calculation was conducted three times for each case, and the average was considered as the residual ratio (Post/Pre (%)) of the compound 2.
In Reference Example 2 where the compound 2 was dissolved in a phosphoric acid buffer solution having a pH of 7, the residual ratio (Post/Pre (%)) at which the compound 2 remained after the X-ray irradiation was 50.0%.
This confirms that, the lower the pH, the higher the likelihood of dissociation of the axial ligands.

[3] = Impact of radical species on decomposition of the compound by X-ray irradiation (residual ratio by HPLC); conditions: 6 MeV
Experimental: Sodium formate was added to a 5-μM aqueous solution of the compound 2 as a radical scavenger. While degassing was performed using Ar, the resulting mixture was irradiated with X-rays (6 MeV) using LINAC such that the amount of X-rays absorbed was 2, 3, 4, or 5 Gy. Immediately after the irradiation, the degassing was stopped and the sample irradiated with X-rays was analyzed using HPLC as in Example 5 to calculate the residual ratios of the compound 2 under the above irradiation conditions. Note that, when the amount of X-rays emitted was 5 Gy, the amount of e^−aq (hydrated electrons) produced was 1.6 μM and the amount of CO2^−·(carbon dioxide anion radicals) produced was 1.6 μM. The irradiation and calculation of the residual ratio were conducted three times for each case, and the average was considered as the residual ratio (Post/Pre (%)) of the compound 2.
The residual ratio (Post/Pre (%)) of the compound 2 was calculated as in Reference Example 3, except that the degassing was stopped after the Ar degassing had been maintained 30 minutes subsequent to the X-ray irradiation.
The residual ratio (Post/Pre (%)) of the compound 2 was calculated as in Reference Example 3, except that, instead of sodium formate, sodium formate and nitrous oxide were used as a radical scavenger. Note that, when the amount of X-rays emitted was 5 Gy, the amount of e^−aq (hydrated electrons) produced was 0 μM and the amount of CO2^−·(carbon dioxide anion radicals) produced was 3.1 μM.
The residual ratio (Post/Pre (%)) of the compound 2 was calculated as in Reference Example 5, except that the degassing was stopped after the Ar degassing had been maintained 30 minutes subsequent to the X-ray irradiation.
The residual ratio (Post/Pre (%)) of the compound 2 was calculated as in Reference Example 3, except that the radical scavenger was not used.
The results obtained in Reference Example 3 to 6 confirm that, even in the case where the amount of X-ray (6 MeV) emitted is 10 Gy or less, that is, for example, 2 to 5 Gy, the selective decomposition of the chemical bonds of the compound 2 (dissociation of axial ligands) occurs due to the action of e^−aq (hydrated electrons) and/or CO2^−·(carbon dioxide anion radicals). It was also confirmed that continuing the Ar degassing subsequent to the irradiation enables the selective decomposition of the chemical bonds of the compound 2 to occur.
On the basis of the results obtained in Reference Examples 3 to 6, it is also considered that e^−aq (hydrated electrons) and/or CO2^−·(carbon dioxide anion radicals) contribute to the dissociation of the axial ligands of the compound 2. Since the residual ratio of the compound 2 decreased in the cases where the degassing was maintained, it is also considered that maintaining the degassing causes a radical chain reaction responsible for the dissociation of the axial ligands.

Bis{3-[Tris(3-Sulfopropyl)]Ammoniopropyldimethylsilyl Oxide} Silicon Phthalocyanine [Compound 1]
Post/pre (%) residual ratio of the compound after X-ray irradiation [1]: 52.5%

Bis{4-[Tris(3-Sulfopropyl)]Ammoniomethylphenoxide} Silicon Phthalocyanine [Compound 4]
Post/pre (%) residual ratio of the compound after X-ray irradiation [1]: 74.8%

Bis{4-[Tris(3-Sulfopropyl)]Ammoniobutyloxide} Silicon Phthalocyanine [Compound 2]
Post/pre (%) residual ratio of the compound after X-ray irradiation [1]: 46.8% | residual ratio (Post/Pre (%)) after X-ray irradiation ([2]; 5 μM in phosphoric acid buffer pH 6, Ar degassing): 18.6% | residual ratio (Post/Pre (%)) after X-ray irradiation ([2]; 5 μM in phosphoric acid buffer pH 7, Ar degassing): 50.0% | residual ratio (Post/Pre (%)) ([3]; Reference example 3: 5 μM aqueous, sodium formate, Ar degassing stopped immediately after irradiation, 2 Gy absorbed): 98.4% | residual ratio (Post/Pre (%)) ([3]; Reference example 3: 5 μM aqueous, sodium formate, Ar degassing stopped immediately after irradiation, 3 Gy absorbed): 93.3% | residual ratio (Post/Pre (%)) ([3]; Reference example 3: 5 μM aqueous, sodium formate, Ar degassing stopped immediately after irradiation, 4 Gy absorbed): 89.5% | residual ratio (Post/Pre (%)) ([3]; Reference example 3: 5 μM aqueous, sodium formate, Ar degassing stopped immediately after irradiation, 5 Gy absorbed): 8.8% | residual ratio (Post/Pre (%)) ([3]; Reference example 4: sodium formate, Ar degassing maintained 30 minutes after irradiation, 2 Gy absorbed): 100% | residual ratio (Post/Pre (%)) ([3]; Reference example 4: sodium formate, Ar degassing maintained 30 minutes after irradiation, 3 Gy absorbed): 49.9% | residual ratio (Post/Pre (%)) ([3]; Reference example 4: sodium formate, Ar degassing maintained 30 minutes after irradiation, 4 Gy absorbed): 0.3% | residual ratio (Post/Pre (%)) ([3]; Reference example 4: sodium formate, Ar degassing maintained 30 minutes after irradiation, 5 Gy absorbed): 0% | residual ratio (Post/Pre (%)) ([3]; Reference example 5: sodium formate and nitrous oxide, degassing stopped immediately after irradiation, 2 Gy absorbed): 96.0% | residual ratio (Post/Pre (%)) ([3]; Reference example 5: sodium formate and nitrous oxide, degassing stopped immediately after irradiation, 3 Gy absorbed): 90.4% | residual ratio (Post/Pre (%)) ([3]; Reference example 5: sodium formate and nitrous oxide, degassing stopped immediately after irradiation, 4 Gy absorbed): 86.2% | residual ratio (Post/Pre (%)) ([3]; Reference example 5: sodium formate and nitrous oxide, degassing stopped immediately after irradiation, 5 Gy absorbed): 8.3% | residual ratio (Post/Pre (%)) ([3]; Reference example 6: sodium formate and nitrous oxide, Ar degassing maintained 30 minutes after irradiation, 2 Gy absorbed): 93.1% | residual ratio (Post/Pre (%)) ([3]; Reference example 6: sodium formate and nitrous oxide, Ar degassing maintained 30 minutes after irradiation, 3 Gy absorbed): 85.4% | residual ratio (Post/Pre (%)) ([3]; Reference example 6: sodium formate and nitrous oxide, Ar degassing maintained 30 minutes after irradiation, 4 Gy absorbed): 36.1% | residual ratio (Post/Pre (%)) ([3]; Reference example 6: sodium formate and nitrous oxide, Ar degassing maintained 30 minutes after irradiation, 5 Gy absorbed): 4.8% | residual ratio (Post/Pre (%)) ([3]; Reference example 7: no radical scavenger, Ar degassing, 2 Gy absorbed): 100% | residual ratio (Post/Pre (%)) ([3]; Reference example 7: no radical scavenger, Ar degassing, 3 Gy absorbed): 99.4% | residual ratio (Post/Pre (%)) ([3]; Reference example 7: no radical scavenger, Ar degassing, 4 Gy absorbed): 99.4% | residual ratio (Post/Pre (%)) ([3]; Reference example 7: no radical scavenger, Ar degassing, 5 Gy absorbed): 100%

Bis({6-[Tris(3-Sulfopropyl)]Ammoniohexanoyl} Oxide) Silicon Phthalocyanine [Compound 3]
Post/pre (%) residual ratio of the compound after X-ray irradiation [1]: 62.1%
